From ChEMBL document CHEMBL5046296 (J Med Chem, 2022)

Experiments:
[1] = target: T1, AP2-associated protein kinase 1 (Homo sapiens, UniProt Q2M2I8); assay: Inhibition of […] in HEK293F cells assessed as reduction in phospho mu2 formation incubated for 3 hrs by Western blot analysis; type: cell-based
[2] = Metabolic stability in mouse liver microsomes assessed as CYP450-mediated metabolism by measuring parent compound remaining at 0.5 uM incubated for 10 mins in presence of NADPH by LC-MS/MS analysis; type: ADME; conditions: read-out: Stability
[3] = Permeability across basolateral to apical side in human Caco-2 cells at 3 uM measured after 2 hrs by LC-MS/MS analysis; type: ADME, cell-based; conditions: read-out: permeability
[4] = target: Cytochrome P450 3A4 (Homo sapiens, UniProt P08684); assay: Inhibition of CYP3A4 (unknown origin) using BFC as substrate; type: ADME
Sequence of Cytochrome P450 3A4 (P08684 whole entry): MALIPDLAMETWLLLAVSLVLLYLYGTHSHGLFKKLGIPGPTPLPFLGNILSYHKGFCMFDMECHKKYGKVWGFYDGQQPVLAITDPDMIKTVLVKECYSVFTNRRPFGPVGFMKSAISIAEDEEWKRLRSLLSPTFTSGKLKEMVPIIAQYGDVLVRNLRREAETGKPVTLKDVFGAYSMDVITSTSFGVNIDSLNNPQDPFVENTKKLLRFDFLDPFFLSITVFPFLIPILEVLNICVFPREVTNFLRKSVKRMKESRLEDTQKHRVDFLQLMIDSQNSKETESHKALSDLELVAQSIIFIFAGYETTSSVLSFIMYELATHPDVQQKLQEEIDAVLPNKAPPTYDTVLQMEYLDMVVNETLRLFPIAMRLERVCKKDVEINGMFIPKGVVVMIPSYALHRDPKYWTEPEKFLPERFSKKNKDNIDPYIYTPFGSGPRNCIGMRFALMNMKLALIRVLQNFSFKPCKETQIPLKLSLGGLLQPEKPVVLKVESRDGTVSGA

[5] = Permeability across apical to basolateral side in human Caco-2 cells at 3 uM measured after 2 hrs by LC-MS/MS analysis; type: ADME, cell-based; conditions: read-out: permeability
[6] = Protein binding in rat plasma assessed as unbound fraction at 10 uM measured after 5 hrs by LC-MS/MS analysis; type: ADME, cell-free
[7] = Permeability of compound at pH 5.5 measured after 4 hrs by PAMPA assay; type: ADME; conditions: read-out: permeability
[8] = Metabolic stability in rat liver microsomes assessed as CYP450-mediated metabolism by measuring parent compound remaining at 0.5 uM incubated for 10 mins in presence of NADPH by LC-MS/MS analysis; type: ADME; conditions: read-out: Stability
[9] = Protein binding in human plasma assessed as unbound fraction at 10 uM measured after 5 hrs by LC-MS/MS analysis; type: ADME, cell-free
[10] = target: T1, AP2-associated protein kinase 1; assay: Inhibition of GST-Xa tagged human AAK1 (30 to 330 residues) expresssed in bacteria using (5-FAM)-Aha-KEEQSQITSQVTGQIGWR-NH2 peptide as substrate incubated for 3 hrs in presence of ATP by electrophoretic analysis
[11] = target: Cytochrome P450 (Homo sapiens, UniProt P04798+P05177+P05181+P08684+P10632+P10635+P11509+P11712+P13584+P20813+P20815+P20853+P24462+P24903+P33260+P33261+P51589+P78329+P98187+Q02928+Q08477+Q16678+Q16696+Q5TCH4+Q6VVX0+Q7Z449+Q8TAV3+Q96SQ9+Q9HB55); assay: Metabolic stability in human liver microsomes assessed as CYP450-mediated metabolism by measuring parent compound remaining at 0.5 uM incubated for 10 mins in presence of NADPH by LC-MS/MS analysis; type: ADME; conditions: read-out: Stability
[12] = Displacement of 3H-LP-927443 from AAK1 in mouse brain membrane homogenate assessed as inhibition constant at 1 uM incubated for 1 hr by liquid scintillation counter analysis; type: cell membranes
[13] = system: Aorta; assay: Cardiotoxicity in rat aortic ring assessed as relaxation of phenylephrine induced aortic ring contraction at 10 uM incubated for 1 hr; type: toxicity, tissue-based; set-up: scale not given: the % may be the effect or the level left
[14] = Protein binding in mouse plasma assessed as unbound fraction at 10 uM measured after 5 hrs by LC-MS/MS analysis; type: ADME, cell-free
[15] = Permeability of compound at pH 7.4 measured after 4 hrs by PAMPA assay; type: ADME; conditions: read-out: permeability
[16] = target: cGMP-dependent protein kinase 2 (Homo sapiens, UniProt Q13237); assay: Inhibition of PKG2 (unknown origin)
Sequence of cGMP-dependent protein kinase 2 (Q13237 whole entry): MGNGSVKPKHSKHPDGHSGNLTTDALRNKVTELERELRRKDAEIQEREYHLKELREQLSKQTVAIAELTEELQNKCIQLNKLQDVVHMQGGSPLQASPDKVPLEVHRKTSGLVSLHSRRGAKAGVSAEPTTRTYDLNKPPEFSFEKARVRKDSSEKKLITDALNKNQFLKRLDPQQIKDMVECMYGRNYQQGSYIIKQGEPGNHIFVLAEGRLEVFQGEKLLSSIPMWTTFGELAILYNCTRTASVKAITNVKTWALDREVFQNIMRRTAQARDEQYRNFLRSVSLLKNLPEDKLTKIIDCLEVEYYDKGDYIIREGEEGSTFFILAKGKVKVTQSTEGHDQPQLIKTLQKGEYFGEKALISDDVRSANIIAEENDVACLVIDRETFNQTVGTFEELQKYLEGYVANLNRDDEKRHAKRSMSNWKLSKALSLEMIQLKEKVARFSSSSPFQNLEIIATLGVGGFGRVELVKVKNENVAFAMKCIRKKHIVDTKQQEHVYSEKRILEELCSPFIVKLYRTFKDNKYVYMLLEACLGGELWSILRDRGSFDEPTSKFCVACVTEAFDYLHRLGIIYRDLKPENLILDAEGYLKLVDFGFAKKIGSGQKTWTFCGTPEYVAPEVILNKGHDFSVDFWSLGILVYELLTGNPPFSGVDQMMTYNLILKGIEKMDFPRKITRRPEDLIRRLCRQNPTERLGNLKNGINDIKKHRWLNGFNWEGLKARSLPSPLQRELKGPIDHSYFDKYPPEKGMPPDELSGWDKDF

[17] = Drug concentration in streptozotocin induced diabetic peripheral neuropathic mechanical allodynia in overnight fasted Sprague-Dawley rat spinal cord at 1 mg/kg, po measured after 5.5 hrs; type: ADME, organism-based; conditions: read-out: Ct
[18] = Cmax in plasma of overnight fasted Sprague-Dawley rat model of streptozotocin induced diabetic peripheral neuropathic mechanical allodynia at 1 mg/kg, po measured after 5.5 hrs; type: ADME, organism-based; set-up: route oral, time 5.5 hrs, dose 1 mg/kg
[19] = Drug concentration in brain of overnight fasted Sprague-Dawley rat model of streptozotocin induced diabetic peripheral neuropathic mechanical allodynia at 1 mg/kg, po measured after 5.5 hrs; type: ADME, organism-based; conditions: read-out: Ct
[20] = system: Rattus norvegicus; assay: Analgesic activity in streptozotocin induced diabetic peripheral neuropathic mechanical allodynia in overnight fasted Sprague-Dawley rat model assessed as reduction in pain response at 1 mg/kg, po measured after 5.5 hrs post treatment; type: functional; set-up: scale not given: the % may be the effect or the level left
[21] = target: Glycogen synthase kinase-3 alpha (Homo sapiens, UniProt P49840); assay: Inhibition of GSK3A (unknown origin)
Sequence of Glycogen synthase kinase-3 alpha (P49840 whole entry): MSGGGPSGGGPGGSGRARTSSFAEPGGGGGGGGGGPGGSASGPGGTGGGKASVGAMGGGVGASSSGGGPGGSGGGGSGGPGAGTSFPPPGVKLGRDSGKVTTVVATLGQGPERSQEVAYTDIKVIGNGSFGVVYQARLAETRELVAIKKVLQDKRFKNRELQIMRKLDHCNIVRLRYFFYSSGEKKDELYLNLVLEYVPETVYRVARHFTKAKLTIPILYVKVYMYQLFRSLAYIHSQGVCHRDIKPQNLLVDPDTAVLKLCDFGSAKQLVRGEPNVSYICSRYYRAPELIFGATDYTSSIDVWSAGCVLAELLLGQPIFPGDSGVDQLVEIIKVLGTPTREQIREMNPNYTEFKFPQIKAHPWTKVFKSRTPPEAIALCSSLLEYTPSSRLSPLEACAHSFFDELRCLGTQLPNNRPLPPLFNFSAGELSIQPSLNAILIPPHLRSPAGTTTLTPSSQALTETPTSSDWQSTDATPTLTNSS

[22] = target: MAP kinase-interacting serine/threonine-protein kinase 2 (Homo sapiens, UniProt Q9HBH9); assay: Inhibition of MNK2 (unknown origin)
Sequence of MAP kinase-interacting serine/threonine-protein kinase 2 (Q9HBH9 whole entry): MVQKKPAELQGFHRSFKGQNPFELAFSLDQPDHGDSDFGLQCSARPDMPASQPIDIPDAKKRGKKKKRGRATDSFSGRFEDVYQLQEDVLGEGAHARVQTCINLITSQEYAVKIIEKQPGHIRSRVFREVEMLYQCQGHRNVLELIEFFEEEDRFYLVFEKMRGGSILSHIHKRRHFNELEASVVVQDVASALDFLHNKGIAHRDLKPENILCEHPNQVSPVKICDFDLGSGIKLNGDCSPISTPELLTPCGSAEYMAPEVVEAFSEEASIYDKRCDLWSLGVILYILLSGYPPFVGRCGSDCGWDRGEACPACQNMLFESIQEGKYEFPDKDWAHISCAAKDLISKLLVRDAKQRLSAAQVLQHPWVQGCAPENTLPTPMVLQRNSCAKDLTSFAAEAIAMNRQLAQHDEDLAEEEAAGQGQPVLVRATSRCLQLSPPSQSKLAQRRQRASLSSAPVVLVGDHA

[23] = Ratio of drug concentration in brain to plasma in streptozotocin induced diabetic peripheral neuropathic mechanical allodynia in overnight fasted Sprague-Dawley rat at 1 mg/kg, po measured after 5.5 hrs; type: ADME, organism-based
[24] = target: Citron Rho-interacting kinase (Homo sapiens, UniProt O14578); assay: Inhibition of CRIK (unknown origin)
[25] = Inhibition of PCKA (unknown origin); set-up: species or system Homo sapiens
[26] = target: Serine/threonine-protein kinase N2 (Homo sapiens, UniProt Q16513); assay: Inhibition of PRK2 (unknown origin)
[27] = target: MAP kinase-interacting serine/threonine-protein kinase 1 (Homo sapiens, UniProt Q9BUB5); assay: Inhibition of MNK1 (unknown origin)
Sequence of MAP kinase-interacting serine/threonine-protein kinase 1 (Q9BUB5 whole entry): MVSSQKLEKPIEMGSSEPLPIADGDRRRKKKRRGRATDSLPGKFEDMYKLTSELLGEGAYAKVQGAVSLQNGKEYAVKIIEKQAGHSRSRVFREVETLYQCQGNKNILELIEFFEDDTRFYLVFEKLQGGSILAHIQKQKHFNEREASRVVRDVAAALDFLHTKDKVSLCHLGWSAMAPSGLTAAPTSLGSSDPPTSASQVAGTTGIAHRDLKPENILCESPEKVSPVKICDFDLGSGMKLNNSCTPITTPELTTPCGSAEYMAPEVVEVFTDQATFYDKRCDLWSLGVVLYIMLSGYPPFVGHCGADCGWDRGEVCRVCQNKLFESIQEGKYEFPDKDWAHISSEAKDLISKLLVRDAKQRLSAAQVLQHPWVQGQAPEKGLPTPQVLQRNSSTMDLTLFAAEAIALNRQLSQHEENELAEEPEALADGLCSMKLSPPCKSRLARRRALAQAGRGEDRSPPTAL

[28] = target: Rho-associated protein kinase 2 (Homo sapiens, UniProt O75116); assay: Inhibition of ROCK2 (unknown origin)
[29] = target: Cyclin-G-associated kinase (Homo sapiens, UniProt O14976); assay: Inhibition of GAK (unknown origin)
Sequence of Cyclin-G-associated kinase (O14976 whole entry): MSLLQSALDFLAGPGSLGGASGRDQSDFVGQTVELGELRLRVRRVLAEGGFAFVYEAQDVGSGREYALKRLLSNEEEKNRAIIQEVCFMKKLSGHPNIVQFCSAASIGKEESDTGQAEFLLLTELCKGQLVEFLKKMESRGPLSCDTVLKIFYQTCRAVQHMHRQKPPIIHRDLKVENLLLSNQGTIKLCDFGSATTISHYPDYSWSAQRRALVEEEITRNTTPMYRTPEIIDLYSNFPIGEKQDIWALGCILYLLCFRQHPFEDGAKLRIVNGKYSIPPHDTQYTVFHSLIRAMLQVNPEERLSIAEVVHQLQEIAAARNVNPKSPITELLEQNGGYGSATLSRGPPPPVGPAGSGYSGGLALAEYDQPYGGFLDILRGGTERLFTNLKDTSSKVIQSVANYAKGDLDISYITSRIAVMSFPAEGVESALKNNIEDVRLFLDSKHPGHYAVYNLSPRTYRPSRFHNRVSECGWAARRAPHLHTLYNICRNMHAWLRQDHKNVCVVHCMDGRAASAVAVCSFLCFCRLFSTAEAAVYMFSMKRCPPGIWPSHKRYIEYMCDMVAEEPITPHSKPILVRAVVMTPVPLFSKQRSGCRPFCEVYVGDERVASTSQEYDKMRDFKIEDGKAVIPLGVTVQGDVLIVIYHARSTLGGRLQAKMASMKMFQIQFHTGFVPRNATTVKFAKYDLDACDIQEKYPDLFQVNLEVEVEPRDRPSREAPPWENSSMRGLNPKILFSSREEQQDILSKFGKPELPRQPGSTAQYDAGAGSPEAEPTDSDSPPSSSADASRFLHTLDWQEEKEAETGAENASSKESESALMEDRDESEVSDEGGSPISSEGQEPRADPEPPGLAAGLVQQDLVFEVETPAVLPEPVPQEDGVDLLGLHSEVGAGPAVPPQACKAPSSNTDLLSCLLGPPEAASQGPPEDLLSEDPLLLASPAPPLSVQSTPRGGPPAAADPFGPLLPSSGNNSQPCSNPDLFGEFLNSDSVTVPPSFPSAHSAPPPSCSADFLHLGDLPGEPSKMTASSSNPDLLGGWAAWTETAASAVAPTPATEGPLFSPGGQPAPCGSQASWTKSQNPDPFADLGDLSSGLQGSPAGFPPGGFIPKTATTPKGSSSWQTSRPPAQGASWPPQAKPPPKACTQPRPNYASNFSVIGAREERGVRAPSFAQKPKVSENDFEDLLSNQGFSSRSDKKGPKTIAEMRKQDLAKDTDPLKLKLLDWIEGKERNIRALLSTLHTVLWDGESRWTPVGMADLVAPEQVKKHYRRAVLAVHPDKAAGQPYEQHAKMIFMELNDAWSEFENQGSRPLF

[30] = target: BMP-2-inducible protein kinase (Homo sapiens, UniProt Q9NSY1); assay: Inhibition of BIKE (unknown origin)
[31] = Toxicity in naive Sprague-Dawley rat assessed as motor impairment at 100 mg/kg, po measured after 5 hrs by rotarod test; type: organism-based; conditions: in vivo

T1 sequence (Q2M2I8 whole entry): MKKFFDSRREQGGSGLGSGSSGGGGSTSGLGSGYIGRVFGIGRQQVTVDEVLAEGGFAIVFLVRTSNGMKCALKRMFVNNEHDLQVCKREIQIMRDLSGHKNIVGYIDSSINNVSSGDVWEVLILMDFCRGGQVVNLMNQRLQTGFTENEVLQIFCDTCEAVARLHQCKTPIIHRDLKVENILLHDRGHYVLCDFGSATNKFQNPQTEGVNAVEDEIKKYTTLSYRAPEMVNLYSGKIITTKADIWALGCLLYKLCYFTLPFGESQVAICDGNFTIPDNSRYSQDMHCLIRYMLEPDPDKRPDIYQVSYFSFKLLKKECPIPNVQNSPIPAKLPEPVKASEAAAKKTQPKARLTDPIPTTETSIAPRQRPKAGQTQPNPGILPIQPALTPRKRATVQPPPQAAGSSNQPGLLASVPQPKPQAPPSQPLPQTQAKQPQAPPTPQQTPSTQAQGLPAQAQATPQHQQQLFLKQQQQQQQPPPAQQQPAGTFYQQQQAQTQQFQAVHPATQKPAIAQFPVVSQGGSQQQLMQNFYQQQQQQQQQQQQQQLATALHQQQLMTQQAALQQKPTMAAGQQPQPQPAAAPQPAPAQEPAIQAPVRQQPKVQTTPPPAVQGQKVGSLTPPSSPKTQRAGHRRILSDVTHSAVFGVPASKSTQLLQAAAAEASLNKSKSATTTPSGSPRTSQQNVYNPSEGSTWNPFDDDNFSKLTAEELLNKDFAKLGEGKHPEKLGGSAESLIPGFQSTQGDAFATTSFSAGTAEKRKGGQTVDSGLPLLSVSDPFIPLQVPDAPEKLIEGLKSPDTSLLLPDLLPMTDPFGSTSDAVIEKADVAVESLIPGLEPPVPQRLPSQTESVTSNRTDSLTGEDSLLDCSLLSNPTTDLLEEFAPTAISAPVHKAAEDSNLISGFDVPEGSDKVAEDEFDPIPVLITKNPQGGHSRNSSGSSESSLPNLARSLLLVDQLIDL

Row | SMILES | IC50 [1] | remaining at 10 min, 0.5 µM [2] | IC50 [4] | remaining at 10 min, 0.5 µM [8] | IC50 [10] | remaining at 10 min, 0.5 µM [11] | Ki [12] | Activity [13] | also measured
1 | Cc1cc(-c2ccc(OC[C@@](C)(N)CC(C)C)c(C(F)(F)F)c2)ccn1 | 25 nM | 66% | > 20 µM | 86% | 0.9 nM | 89% | 0.22 nM | 69% | Papp B→A at 2 h, 3 µM [3]: 5.9 ×10⁻⁶ cm/s; Papp A→B at 2 h, 3 µM [5]: 7.1 ×10⁻⁶ cm/s; fraction unbound at 5 h, 10 µM [6]: 0.026; Papp at 4 h [7]: 36 ×10⁻⁶ cm/s; fraction unbound at 5 h, 10 µM [9]: 0.02; fraction unbound at 5 h, 10 µM [14]: 0.017; Papp at 4 h [15]: 30.5 ×10⁻⁶ cm/s
2 | CC(C)C[C@](C)(N)COc1ccc(-c2ccncc2)cc1C(F)(F)F | 29 nM |  | 0.63 µM |  | 0.6 nM |  | 0.17 nM |  | 
3 | CC(C)C[C@](C)(N)COc1ncc(-c2ccnc(C(F)F)c2)cc1C#N |  |  |  |  |  |  |  | 50% | 
4 | Cc1cc(-c2cnc(OC[C@@](C)(N)CC(C)C)c(C#N)c2)ccn1 |  |  |  |  |  |  |  | 28% | 
5 | CC(C)C[C@H](N)COc1ccc(-c2ccncc2)cc1 |  |  | 8.7 µM |  |  |  |  |  | 
6 | CC(C)C[C@H](N)COc1ccc(-c2ccnc(C(F)(F)F)c2)cc1C#N |  |  | 1.3 µM |  |  |  |  |  | 
7 | CC(C)C[C@](C)(N)COc1ncc(-c2ccnc(Cl)c2)cc1C(F)F | 9.1 nM | 76% |  | 88% | 3.1 nM | 89% |  |  | 
8 | Cc1cc(-c2cnc(OC[C@@](C)(N)CC(C)C)c(C(F)F)c2)ccn1 |  | 43% |  | 65% | 1.9 nM | 43% |  |  | 
9 | CC(C)C[C@](C)(N)COc1ccc(-c2ccnc(C(F)F)c2)cc1C(F)(F)F | 7.8 nM | 98% | 18 µM | 92% | 0.6 nM | 94% | 0.07 nM |  | Papp B→A at 2 h, 3 µM [3]: 1.7 ×10⁻⁶ cm/s; IC50 [16]: 380 nM; concentration at 5.5 h [17]: 510 nM; Papp A→B at 2 h, 3 µM [5]: 3.3 ×10⁻⁶ cm/s; Cmax [18]: 80 nM; fraction unbound at 5 h, 10 µM [6]: 0.004; Papp at 4 h [7]: 33.9 ×10⁻⁶ cm/s; concentration at 5.5 h [19]: 880 nM; Activity [20]: 30%; IC50 [21]: 1700 nM; fraction unbound at 5 h, 10 µM [9]: 0.008; IC50 [22]: 380 nM; fraction unbound at 5 h, 10 µM [14]: 0.002; Kp at 5.5 h [23]: 11; Papp at 4 h [15]: 55 ×10⁻⁶ cm/s
10 | CC(C)C[C@](C)(N)COc1ccc(-c2ccnc(C(F)F)c2)nc1Cl |  |  |  |  |  |  |  | 64% | 
11 | CC(C)C[C@](C)(N)COc1ccc(-c2ccnc(C(F)F)c2)cc1C#N | 6.4 nM | 97% | > 20 µM | 71% | 0.6 nM | 85% | 0.25 nM | 100% | Papp B→A at 2 h, 3 µM [3]: 17.7 ×10⁻⁶ cm/s; Papp A→B at 2 h, 3 µM [5]: 22.2 ×10⁻⁶ cm/s; fraction unbound at 5 h, 10 µM [6]: 0.14; Papp at 4 h [7]: 68.1 ×10⁻⁶ cm/s; fraction unbound at 5 h, 10 µM [9]: 0.14; fraction unbound at 5 h, 10 µM [14]: 0.079; Papp at 4 h [15]: 68.7 ×10⁻⁶ cm/s
12 | Cc1cc(-c2ccc(OC[C@@](C)(N)CC(C)C)c(C(F)F)n2)ccn1 | 11 nM | 71% |  | 82% | 2.9 nM | 81% | 1.1 nM | 26% | 
13 | Cc1cc(-c2ccc(OC[C@@H](N)CC(C)C)c(C#N)c2)ccn1 | 89 nM |  | 2.4 µM |  | 0.8 nM |  | 0.71 nM |  | 
14 | Cc1cc(-c2ccc(OC[C@@](C)(N)CC(C)C)c(C#N)c2)ccn1 |  |  | > 20 µM |  |  |  |  |  | 
15 | CC(C)C[C@](C)(N)COc1ccc(-c2ccnc(Cl)c2)nc1C(F)F |  | 85% |  | 87% | 3.9 nM | 97% |  | 59% | 
16 | CC(C)C[C@](C)(N)COc1ccc(-c2ccnc(F)c2)cc1C(F)(F)F |  |  | > 20 µM |  |  |  |  |  | 
17 | CC(C)C[C@](C)(N)COc1ccc(-c2ccnc(C(F)F)c2)cc1C(F)F | 0.9 nM |  | 16 µM | 83% | 0.4 nM | 96% | 0.04 nM | 84% | Papp B→A at 2 h, 3 µM [3]: 6.2 ×10⁻⁶ cm/s; IC50 [16]: 420 nM; Papp A→B at 2 h, 3 µM [5]: 10.8 ×10⁻⁶ cm/s; fraction unbound at 5 h, 10 µM [6]: 0.045; Papp at 4 h [7]: 99.9 ×10⁻⁶ cm/s; IC50 [24]: 56 nM; IC50 [25]: 580 nM; fraction unbound at 5 h, 10 µM [9]: 0.046; IC50 [26]: 440 nM; IC50 [27]: 180 nM; IC50 [28]: 420 nM; IC50 [29]: 73 nM; fraction unbound at 5 h, 10 µM [14]: 0.018; Papp at 4 h [15]: 42.7 ×10⁻⁶ cm/s; IC50 [30]: 280 nM
18 | Cc1cc(-c2ccc(OC[C@@](C)(N)CC(C)C)c(C)n2)ccn1 |  | 78% |  | 83% | 36 nM | 95% | 7.2 nM | 1% | 
19 | Cc1cc(-c2ccc(OC[C@@](C)(N)CC(C)C)c(C3CC3)c2)ccn1 |  |  | > 20 µM |  |  |  |  |  | 
20 | COc1cc(-c2ccc(OC[C@@H](N)CC(C)C)c(C#N)c2)ccn1 |  |  | 0.54 µM |  |  |  |  |  | 
21 | Cc1cc(-c2ccc(OC[C@@](C)(N)CC(C)C)c(C(F)F)c2)ccn1 | 0.8 nM | 69% | > 20 µM | 81% | 0.4 nM | 74% | 0.08 nM | 57% | Papp B→A at 2 h, 3 µM [3]: 6 ×10⁻⁶ cm/s; Papp A→B at 2 h, 3 µM [5]: 9.5 ×10⁻⁶ cm/s; fraction unbound at 5 h, 10 µM [6]: 0.031; Papp at 4 h [7]: 69.7 ×10⁻⁶ cm/s; fraction unbound at 5 h, 10 µM [9]: 0.037; fraction unbound at 5 h, 10 µM [14]: 0.02; Papp at 4 h [15]: 31.9 ×10⁻⁶ cm/s
22 | CC(C)C[C@](C)(N)COc1ccc(-c2ccnc(C(F)F)c2)cc1C1CC1 |  |  | > 20 µM |  |  |  |  |  | Papp at 4 h [7]: 78.4 ×10⁻⁶ cm/s
23 | NCC1(CC(=O)O)CCCCC1 [GABAPENTIN] |  |  |  |  |  |  |  |  | Activity [31]: Non-Toxic
